Experimental data: patent US20050136121A1, “Oral peptide delivery system with improved bioavailability” (SHEAR/KERSHMAN LABORATORIES, INC., priority 2003, published 2005)

Experiment: Study 2: female adult dogs fed formulations or injected with Humulin, serum glucose level
Type: in vivo
Experimental: Female adult dogs were fed the formulations from Examples 3 to 5. Further dogs were injected with Humulin and given 0.05 mL of 100 U/mL. Before being fed or injected the formulations, the animals fasted overnight. The dogs were fed 4 to 6 hours after dosing.

## Humulin: injected insulin comparator, 0.05 mL of 100 U/mL
Injected 0.05 mL of 100 U/mL
  time after dosing at which glucose level began increasing: about 2 hours
Injected 0.05 mL of 100 U/mL, within minutes
  drop in glucose levels: 67%
injected, after eating
  time at which glucose levels returned to normal levels: about 12 hours
injected, ate dog food at 4 to 6 hours
  glucose levels at hours 6 to 10: above the normal levels
